Data reported in PubChem BioAssay AID2060624 (Molecular Pharmacology Branch, DTP, NCI, 2025).
Where “and” joins values, the source holds several entries; their conditions need not be identical. Equal values may be shown once.

Test system: 217524-143-R1-J4-PDC spheroids with HUVEC/MSC, viability
Assay: Anticancer human tumor 217524-143-R1-J4-PDC patient-derived pancreatic carcinoma cell line growth inhibition [CLK]
Details: for viability, T/C: stronger effect = lower value
Method in brief: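 Multi-cell-type spheroids combined patient-derived tumor cells with HUVEC endothelial cells and human mesenchymal stem cells. Paired agents were dosed in half-log steps down from about clinical Cmax, or from 10 microM where Cmax was unknown.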

[1] = curve of first compound, second compound 0.0316 µM
[2] = curve of first compound, second compound 0.1 µM
[3] = curve of first compound, second compound 0.316 µM
[4] = curve of first compound, second compound 1 µM
[5] = curve of first compound, second compound 3.16 µM
[6] = curve of first compound, second compound 10 µM
[7] = second compound 0.0316 µM, first compound 0.0316 µM
[8] = second compound 0.0316 µM, first compound 0.1 µM
[9] = second compound 0.0316 µM, first compound 0.316 µM
[10] = second compound 0.0316 µM, first compound 1 µM
[11] = second compound 0.1 µM, first compound 0.0316 µM
[12] = second compound 0.1 µM, first compound 0.1 µM
[13] = second compound 0.1 µM, first compound 0.316 µM
[14] = second compound 0.1 µM, first compound 1 µM
[15] = second compound 0.316 µM, first compound 0.0316 µM
[16] = second compound 0.316 µM, first compound 0.1 µM
[17] = second compound 0.316 µM, first compound 0.316 µM
[18] = second compound 0.316 µM, first compound 1 µM
[19] = second compound 1 µM, first compound 0.0316 µM
[20] = second compound 1 µM, first compound 0.1 µM
[21] = second compound 1 µM, first compound 0.316 µM
[22] = second compound 1 µM, first compound 1 µM
[23] = second compound 3.16 µM, first compound 0.0316 µM
[24] = second compound 3.16 µM, first compound 0.1 µM
[25] = second compound 3.16 µM, first compound 0.316 µM
[26] = second compound 3.16 µM, first compound 1 µM
[27] = second compound 10 µM, first compound 0.0316 µM
[28] = second compound 10 µM, first compound 0.1 µM
[29] = second compound 10 µM, first compound 0.316 µM
[30] = second compound 10 µM, first compound 1 µM
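Also: spheroids exposed to agents for seven days before reading.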
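For viability, T/C in this document: 100% = DMSO vehicle control viability.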

For `COc1ccc([C@@H](O)c2cc(-c3ncnc4cc(N5CCOCC5)ccc34)c(F)cc2Cl)nn1` + CNC(=O)c1ccc(Nc2nc(OC3CCCC3)c3c(-c4ccc5nc(C)oc5c4)c[nH]c3n2)c(OC)c1, the IC50 [1] was 0.813 µM, the IC50 [2] was < 0.0316 µM and the IC50 [3] was < 0.0316 µM. For the same compound, the IC50 [4] was < 0.0316 µM, the IC50 [5] was < 0.0316 µM and the IC50 [6] was < 0.0316 µM. It also gave a viability, T/C [7] of 95.4%, a viability, T/C [8] of 72% and a viability, T/C [9] of 66%. It also gave a viability, T/C [10] of 50.4%, a viability, T/C (second compound 0.0316 µM, first compound 3.16 µM) of 27.6% and a viability, T/C (second compound 0.0316 µM, first compound 10 µM) of 10.6%. It also gave a viability, T/C [11] of 43.1%, a viability, T/C [12] of 34.6% and a viability, T/C [13] of 32%. For the same compound, the viability, T/C [14] was 27.9%, the viability, T/C (second compound 0.1 µM, first compound 3.16 µM) was 19.3% and the viability, T/C (second compound 0.1 µM, first compound 10 µM) was 9.43%. For the same compound, the viability, T/C [15] was 39.8%, the viability, T/C [16] was 28.4% and the viability, T/C [17] was 27.4%. It also gave a viability, T/C [18] of 20.8%, a viability, T/C (second compound 0.316 µM, first compound 3.16 µM) of 13.3% and a viability, T/C (second compound 0.316 µM, first compound 10 µM) of 7.35%. For the same compound, the viability, T/C [19] was 32%, the viability, T/C [20] was 22.9% and the viability, T/C [21] was 23.3%. It also gave a viability, T/C [22] of 13.6%, a viability, T/C (second compound 1 µM, first compound 3.16 µM) of 11.8% and a viability, T/C (second compound 1 µM, first compound 10 µM) of 5.29%. It also gave a viability, T/C [23] of 25.6%, a viability, T/C [24] of 27% and a viability, T/C [25] of 20.2%. The viability, T/C [26] was 16.9%, the viability, T/C (second compound 3.16 µM, first compound 3.16 µM) was 10.3% and the viability, T/C (second compound 3.16 µM, first compound 10 µM) was 4.64%. The viability, T/C [27] was 24.8%, the viability, T/C [28] was 23.6% and the viability, T/C [29] was 20.7%. For the same compound, the viability, T/C [30] was 13.8%, the viability, T/C (second compound 10 µM, first compound 3.16 µM) was 9.68% and the viability, T/C (second compound 10 µM, first compound 10 µM) was 5.01%.

In the case of `CCN1CCN(Cc2ccc(Nc3ncc(F)c(-c4cc(F)c5nc(C)n(C(C)C)c5c4)n3)nc2)CC1` + CNC(=O)c1ccc(Nc2nc(OC3CCCC3)c3c(-c4ccc5nc(C)oc5c4)c[nH]c3n2)c(OC)c1, the IC50 [1] is reported as 0.133 µM, the IC50 [2] is reported as < 0.00316 µM and the IC50 [3] is reported as < 0.00316 µM. The IC50 [4] was < 0.00316 µM, the IC50 [5] was < 0.00316 µM and the IC50 [6] was < 0.00316 µM. The viability, T/C (second compound 0.0316 µM, first compound 0.00316 µM) was 84.8%, the viability, T/C (second compound 0.0316 µM, first compound 0.01 µM) was 71.2% and the viability, T/C [7] was 68.4%. For the same compound, the viability, T/C [8] was 52.4%, the viability, T/C [9] was 40% and the viability, T/C [10] was 38.4%. For the same compound, the viability, T/C (second compound 0.1 µM, first compound 0.00316 µM) was 50.3%, the viability, T/C (second compound 0.1 µM, first compound 0.01 µM) was 42% and the viability, T/C [11] was 35.6%. It also gave a viability, T/C [12] of 27.8%, a viability, T/C [13] of 37.2% and a viability, T/C [14] of 36%. The viability, T/C (second compound 0.316 µM, first compound 0.00316 µM) was 46.8%, the viability, T/C (second compound 0.316 µM, first compound 0.01 µM) was 34.8% and the viability, T/C [15] was 30.8%. It also gave a viability, T/C [16] of 25.7%, a viability, T/C [17] of 30.5% and a viability, T/C [18] of 32%. The viability, T/C (second compound 1 µM, first compound 0.00316 µM) was 28.4%, the viability, T/C (second compound 1 µM, first compound 0.01 µM) was 26.2% and the viability, T/C [19] was 28.5%. It also gave a viability, T/C [20] of 25.2%, a viability, T/C [21] of 25.2% and a viability, T/C [22] of 26.3%. For the same compound, the viability, T/C (second compound 3.16 µM, first compound 0.00316 µM) was 25.3%, the viability, T/C (second compound 3.16 µM, first compound 0.01 µM) was 24.8% and the viability, T/C [23] was 23.9%. The viability, T/C [24] was 21.1%, the viability, T/C [25] was 21.6% and the viability, T/C [26] was 22.2%. The viability, T/C (second compound 10 µM, first compound 0.00316 µM) was 24.3%, the viability, T/C (second compound 10 µM, first compound 0.01 µM) was 23% and the viability, T/C [27] was 23.8%. It also gave a viability, T/C [28] of 21.9%, a viability, T/C [29] of 21.4% and a viability, T/C [30] of 26.4%.

With `CCN1CCN(Cc2ccc(Nc3ncc(F)c(-c4cc(F)c5nc(C)n(C(C)C)c5c4)n3)nc2)CC1` the viability, T/C (compound 0.00316 µM) was 104% and 92.1%, the viability, T/C (compound 0.01 µM) was 74.8% and 70.1% and the viability, T/C (compound 0.0316 µM) was 90.5% and 66.1%. The viability, T/C (compound 0.1 µM) was 61.9% and 40.7%, the viability, T/C (compound 0.316 µM) was 40.3% and 33.4% and the viability, T/C (compound 1 µM) was 44% and 39.1%. The IC50 (curve of compound) was 0.2 µM and 0.064 µM.

In the case of `CCc1c2c(nc3ccc(O)cc13)-c1cc3c(c(=O)n1C2)COC(=O)[C@]3(O)CC`, the viability, T/C (compound 0.00316 µM) is reported as 51.5% and 55.3%, the viability, T/C (compound 0.01 µM) is reported as 42% and 40.3% and the viability, T/C (compound 0.0316 µM) is reported as 33.3% and 33.9%. For the same compound, the viability, T/C (compound 0.1 µM) was 26.8% and 28.3%, the viability, T/C (compound 0.316 µM) was 20.4% and 16.5% and the viability, T/C (compound 1 µM) was 5.13% and 2.88%. The IC50 (curve of compound) was 0.00331 µM and 0.0047 µM.

For `C=C(F)C(=O)N1CCN(c2nc(OCC3CCCN3C)nc3c2CCN(c2cccc4cccc(Cl)c24)C3)CC1CC#N` (configuration not stated), the viability, T/C (compound 0.0316 µM) was 91.8% and 102%, the viability, T/C (compound 0.1 µM) was 113% and 96.7% and the viability, T/C (compound 0.316 µM) was 109% and 106%. The viability, T/C (compound 1 µM) was 73.5% and 108%, the viability, T/C (compound 3.16 µM) was 85.6% and 87.4% and the viability, T/C (compound 10 µM) was 3.02% and 4.54%. For the same compound, the IC50 (curve of compound) was 4.87 µM and 5.32 µM.

For `Nc1ccn(C2OC(CO)C(O)C2(F)F)c(=O)n1` (configuration not stated), the viability, T/C (compound 0.0316 µM) was 53.5% and 66.5%, the viability, T/C (compound 0.1 µM) was 28.6% and 26% and the viability, T/C (compound 0.316 µM) was 22.5% and 22.4%. For the same compound, the viability, T/C (compound 1 µM) was 24.3% and 26%, the viability, T/C (compound 3.16 µM) was 25.1% and 29.9% and the viability, T/C (compound 10 µM) was 29.4% and 29.8%. For the same compound, the IC50 (curve of compound) was 0.0371 µM and 0.0513 µM.
